Like-named read-outs stand apart in the source and are kept apart here.
Key:
recombinant human GALK1 = recombinant human GALK1 (Homo sapiens, UniProt P51570); experiment: hGALK1 biochemical activity assay (Kinase-Glo Plus, ATP depletion)
Procedure, shortened: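 Recombinant human or mouse GALK1 (5 nM, with 100 μM galactose, in the added enzyme solution) was run with ATP (35 μM in the substrate solution) in HEPES pH 8.0 buffer. Compounds were tested at 11 1/3-step concentrations from 57.4 μM to 0.97 nM. After 1 h at room temperature, remaining ATP was read by Kinase-Glo Plus luminescence.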

[1] = aqueous kinetic solubility
recombinant mouse GALK1 = recombinant mouse GALK1 (Mus musculus, UniProt Q9R0N0); experiment: mGALK1 biochemical activity assay (Kinase-Glo Plus, ATP depletion)
Chain of recombinant mouse GALK1 (Q9R0N0 whole entry): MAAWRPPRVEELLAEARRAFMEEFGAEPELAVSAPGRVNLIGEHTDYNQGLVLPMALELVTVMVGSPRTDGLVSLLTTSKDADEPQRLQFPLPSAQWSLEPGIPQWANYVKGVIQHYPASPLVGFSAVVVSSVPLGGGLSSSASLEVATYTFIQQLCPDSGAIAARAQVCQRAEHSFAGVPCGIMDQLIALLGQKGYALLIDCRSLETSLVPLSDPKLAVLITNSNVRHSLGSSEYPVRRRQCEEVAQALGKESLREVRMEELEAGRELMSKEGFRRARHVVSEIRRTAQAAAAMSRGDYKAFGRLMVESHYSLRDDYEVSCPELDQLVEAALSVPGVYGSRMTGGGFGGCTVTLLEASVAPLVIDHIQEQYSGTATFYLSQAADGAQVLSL
Procedure, shortened: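 Recombinant GALK1 (5 nM) with 100 μM galactose; GALK1 turnover read as ATP depletion by Kinase-Glo Plus luminescence. Reaction ran 1 h at room temperature before detection reagent was added.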

[2] = rat microsomal stability (RLM)
[3] = Tables 2-15, 35 μM ATP, 100 μM galactose, 1 h, bracketed figure after some values (e.g. −1.2) is undefined and not reported, read-out: hGALK IC50
[4] = recombinant human GALK1, Kinase-Glo Plus ATP depletion, read-out: hGALK
[5] = Tables 2-15, 35 μM ATP, 100 μM galactose, 1 h, bracketed figure after some values is undefined and not reported, read-out: mGALK IC50
[6] = recombinant mouse GALK1, Kinase-Glo Plus ATP depletion, read-out: mGALK
[7] = recombinant human GALK1, Kinase-Glo Plus ATP depletion, bracketed figure in the cell, e.g. (−1.2), is not defined in the text shown, read-out: hGALK
[8] = recombinant mouse GALK1, Kinase-Glo Plus ATP depletion, bracketed figure in the cell, e.g. (−1.2), is not defined in the text shown, read-out: mGALK
[9] = microsomal stability half-life, minutes

Chain of recombinant human GALK1 (P51570 whole entry): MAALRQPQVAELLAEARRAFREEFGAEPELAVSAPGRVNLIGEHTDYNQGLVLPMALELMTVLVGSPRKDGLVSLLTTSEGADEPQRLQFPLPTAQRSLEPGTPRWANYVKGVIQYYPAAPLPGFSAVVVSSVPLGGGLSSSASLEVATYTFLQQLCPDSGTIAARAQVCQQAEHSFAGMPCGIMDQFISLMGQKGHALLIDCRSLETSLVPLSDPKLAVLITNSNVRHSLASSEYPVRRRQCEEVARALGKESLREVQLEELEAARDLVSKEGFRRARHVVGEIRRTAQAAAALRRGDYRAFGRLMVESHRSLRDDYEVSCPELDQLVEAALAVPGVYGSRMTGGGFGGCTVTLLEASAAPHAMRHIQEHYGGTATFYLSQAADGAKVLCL

Row | IC50 (recombinant human GALK1; [3]) [µM] | IC50 (recombinant human GALK1; [4]) [µM] | Sol. [1] [µg/mL] | IC50 (recombinant mouse GALK1; [5]) [µM] | IC50 (recombinant mouse GALK1; [6]) [µM] | Perm. (1 × 10^−6 cm/sec) (PAMPA permeability) | Metab. Stabil. (m) ([2]; microsomal half-life) | Sol. ([1]; aqueous kinetic solubility) [µg/mL] | Perm. (1 × 10^−6 cm/sec) (PAMPA permeability; PAMPA) | Metab. Stabil. (m) ([2]; microsomal stability half-life) | IC50 (recombinant human GALK1; [7]) [µM] | IC50 (recombinant mouse GALK1; [8]) [µM] | Metab. Stabil. (m) [2, 9] [m] | mGALK (μM) (recombinant mouse GALK1; recombinant mouse GALK1, Kinase-Glo Plus ATP depletion, bracketed figure in the cell, e.g. (−1.2), is not defined in the text shown) | Structure (SMILES)
1 | 3.06 | 3.06 | >49 | 12.2 | 12.2 | 127.62 1 × 10^−6 cm/sec | 5.12 |  |  |  |  |  |  |  | CC1=C(C(=O)NCc2cnn(C)c2)C(c2ccc(C)cc2Cl)N=C(Nc2nc3cnccc3o2)N1 (stereo not drawn) [Compound 104, 4-(2-chloro-4-methylphenyl)-6-methyl-N-((1-methyl-1H-pyrazol-4-yl)methyl)-2-(oxazolo[4,5-c]pyridin-2-ylamino)-1,4-dihydropyrimidine-5-carboxamide]
2 | 10.9 | 10.9 |  | 19.3 | 19.3 |  |  | <1 | 6.2 1 × 10^−6 cm/sec | >30 |  |  |  |  | CC1=C(C(=O)Nc2nnc(-c3ccncc3)s2)C(c2ccccc2Cl)N=C(Nc2nc3ccccc3o2)N1 (stereo not drawn) [Compound 187, 2-(benzo[d]oxazol-2-ylamino)-4-(2-chlorophenyl)-6-methyl-N-(5-(pyridin-4-yl)-1,3,4-thiadiazol-2-yl)-1,4-dihydropyrimidine-5-carboxamide]
3 | 3.06 | 3.06 | >79 | 17.2 | 17.2 | <1 1 × 10^−6 cm/sec | >30 |  |  |  |  |  |  |  | CC1=C(C(=O)Nc2cc(C(=O)O)ccn2)C(c2cccc(N)c2Cl)N=C(Nc2nc3ccc(F)cc3o2)N1 (stereo not drawn) [Compound 64, 2-(4-(3-amino-2-chlorophenyl)-2-((6-fluorobenzo[d]oxazol-2-yl)amino)-6-methyl-1,4-dihydropyrimidine-5-carboxamido)isonicotinic acid]
4 |  |  |  |  |  |  |  | <1 | 24.6 1 × 10^−6 cm/sec |  | 7.69 | 15.3 | >30 |  | CC(C)C1=C(C(=O)Nc2nncs2)C(c2ccccc2Cl)N=C(Nc2nc3ccccc3o2)N1 (stereo not drawn) [Compound 250, 2-(benzo[d]oxazol-2-ylamino)-4-(2-chlorophenyl)-6-isopropyl-N-(1,3,4-thiadiazol-2-yl)-1,4-dihydropyrimidine-5-carboxamide]
5 | 3.06 | 3.06 | <1 | 10.9 | 10.9 | 59.9 1 × 10^−6 cm/sec | >30 |  |  |  |  |  |  |  | CC1=C(C(=O)Nc2cc(CO)ccn2)C(c2ccccc2Cl)N=C(Nc2nc3ccc(F)cc3o2)N1 (stereo not drawn) [Compound 37, 4-(2-chlorophenyl)-2-((6-fluorobenzo[d]oxazol-2-yl)amino)-N-(4-(hydroxymethyl)pyridin-2-yl)-6-methyl-1,4-dihydropyrimidine-5-carboxamide]
6 | 3.06 | 3.06 | 17.3 | 13.7 | 13.7 | <1 1 × 10^−6 cm/sec | >30 |  |  |  |  |  |  |  | CC1=C(C(=O)Nc2cc(C(=O)O)ccn2)[C@@H](c2ccccc2Cl)N=C(Nc2nc3ccc(F)cc3o2)N1 [Compound 20, (S)-2-(4-(2-chlorophenyl)-2-((6-fluorobenzo[d]oxazol-2-yl)amino)-6-methyl-1,4-dihydropyrimidine-5-carboxamido)isonicotinic acid]
7 | 1.09 | 1.09 | 2.4 | 3.85 | 3.85 | <1.7 1 × 10^−6 cm/sec | >30 |  |  |  |  |  |  |  | CC1=C(C(=O)Nc2cc(C(=O)O)ccn2)C(c2ccc(Br)cc2Cl)N=C(Nc2nc3ccc(F)cc3o2)N1 (stereo not drawn) [Compound 62, 2-(4-(4-bromo-2-chlorophenyl)-2-((6-fluorobenzo[d]oxazol-2-yl)amino)-6-methyl-1,4-dihydropyrimidine-5-carboxamido)isonicotinic acid]
8 | 3.43 | 3.34 | 4.6 | 15.3 | 15.3 | 179.3 1 × 10^−6 cm/sec | 11.7017 |  |  |  |  |  |  |  | CC1=C(C(=O)Nc2cc(N(C)C)ccn2)C(c2ccc(C)cc2Cl)N=C(Nc2nc3cccc(N)c3o2)N1 (stereo not drawn) [Compound 89, 2-((7-aminobenzo[d]oxazol-2-yl)amino)-4-(2-chloro-4-methylphenyl)-N-(4-(dimethylamino)pyridin-2-yl)-6-methyl-1,4-dihydropyrimidine-5-carboxamide]
9 | 0.19 | 0.19 |  | 3.06 | 3.06 |  |  | 1.56 | 193.1 1 × 10^−6 cm/sec | 18.69 |  |  |  |  | CC1=C(C(=O)NCc2cnn(CC(F)(F)F)c2)C(c2ccc(C)cc2Cl)N=C(Nc2nc3ccc(F)c(N)c3o2)N1 (stereo not drawn) [Compound 131, 2-((7-amino-6-fluorobenzo[d]oxazol-2-yl)amino)-4-(2-chloro-4-methylphenyl)-6-methyl-N-((1-(2,2,2-trifluoroethyl)-1H-pyrazol-4-yl)methyl)-1,4-dihydropyrimidine-5-carboxamide]
10 |  |  |  |  |  |  |  | 37.9 | 102.7 1 × 10^−6 cm/sec |  | 12.2 |  | >30 | in- active | CC1=C(C(=O)Nc2nncs2)C2(CCOC2)N=C(Nc2nc3ccccc3o2)N1 (stereo not drawn) [Compound 260, 7-(benzo[d]oxazol-2-ylamino)-9-methyl-N-(1,3,4-thiadiazol-2-yl)-2-oxa-6,8-diazaspiro[4.5]deca-6,9-diene-10-carboxamide]
11 |  |  |  |  |  |  |  | <1 | 42.7 1 × 10^−6 cm/sec |  | 5.44 | 17.2 | >30 |  | CC(C)CC1=C(C(=O)Nc2nncs2)C(c2ccccc2Cl)N=C(Nc2nc3ccccc3o2)N1 (stereo not drawn) [Compound 248, 2-(benzo[d]oxazol-2-ylamino)-4-(2-chlorophenyl)-6-isobutyl-N-(1,3,4-thiadiazol-2-yl)-1,4-dihydropyrimidine-5-carboxamide]
12 |  |  |  |  |  |  |  | 10.6 | 695.3 1 × 10^−6 cm/sec |  | 6.85 | 19.3 | >30 |  | CC1=C(C(=O)Nc2nncs2)C(c2ncccc2Cl)N=C(Nc2nc3ccccc3o2)N1 (stereo not drawn) [Compound 256, 2-(benzo[d]oxazol-2-ylamino)-4-(3-chloropyridin-2-yl)-6-methyl-N-(1,3,4-thiadiazol-2-yl)-1,4-dihydropyrimidine-5-carboxamide]
13 | 4.85 | 4.85 |  | 10.9 |  |  |  | <1 | <2.7 1 × 10^−6 cm/sec | 3.158 |  |  |  |  | CCOC(=O)c1nnc(NC(=O)C2=C(C)NC(Nc3nc4ccccc4o3)=NC2c2ccccc2Cl)s1 (stereo not drawn) [Compound 168, ethyl 5-(2-(benzo[d]oxazol-2-ylamino)-4-(2-chlorophenyl)-6-methyl-1,4-dihydropyrimidine-5-carboxamido)-1,3,4-thiadiazole-2-carboxylate]
14 | 4.32 | 4.32 |  | 6.85 | 6.85 |  |  | <1 | <6.3 1 × 10^−6 cm/sec | >30 |  |  |  |  | CC1=C(C(=O)Nc2ccc(C(N)=O)cc2)C(c2ccccc2Cl)N=C(Nc2nc3ccccc3o2)N1 (stereo not drawn) [Compound 181, 2-(benzo[d]oxazol-2-ylamino)-N-(4-carbamoylphenyl)-4-(2-chlorophenyl)-6-methyl-1,4-dihydropyrimidine-5-carboxamide]
15 |  | 0.11 | >90 | 0.69 | 0.69 | <1 1 × 10^−6 cm/sec | >30 |  |  |  |  |  |  |  | CC1=C(C(=O)Nc2cc(C(=O)O)ccn2)C(c2ccc(-c3cnc(C)nc3)cc2Cl)N=C(Nc2nc3ccc(F)cc3o2)N1 (stereo not drawn) [Compound 71, 2-(4-(2-chloro-4-(2-methylpyrimidin-5-yl)phenyl)-2-((6-fluorobenzo[d]oxazol-2-yl)amino)-6-methyl-1,4-dihydropyrimidine-5-carboxamido)isonicotinic acid]
16 | 2.73 | 2.73 |  | 5.44 | 5.44 |  |  | <1 | 27.7 1 × 10^−6 cm/sec | 18.44 |  |  |  |  | COC(=O)c1ccnc(NC(=O)C2=C(C)NC(Nc3nc4ccccc4o3)=NC2c2ccccc2Cl)c1 (stereo not drawn) [Compound 196, methyl 2-(2-(benzo[d]oxazol-2-ylamino)-4-(2-chlorophenyl)-6-methyl-1,4-dihydropyrimidine-5-carboxamido)isonicotinate]
